According to US7531517B2, “Inhibitors of cancer cell, T-cell and keratinocyte proliferation” (4SC AG, priority 2005, dated 2009):

The compounds below were run against T1, human Proteasome (20S proteasome, chymotryptic activity) (Homo sapiens, UniProt P28074) (assay: chymotryptic activity of the 20S proteasome (Suc-LLVT-AMC substrate, fluorescence)). Details: given in words only.
T1 construct: purchased Immatics, Tübingen
Format: biochemical
Procedure: The chymotryptic activity of the 20S proteasome (Immatics, Tüibingen) was determined using a Tecan Ultra plate reader and Suc-LLVT-AMC as substrate (Bachem). In the wells of a black 96 well polypropylene plate, 2 μl of the respective inhibitor dissolved in DMSO were mixed with 50 μl substrate solution (25 mM HEPES pH 7.5 at 20° C., 0.5 mM EDTA and Suc-LLVT-AMC (in the appropriate concentration) and the reaction was initiated by adding 150 μl proteasome solution (1.3 μg/ml 20S proteasome in 25 mM HEPES pH 7.5 at 20° C., 0.5 mM EDTA, 0.033% (w/v) SDS). Substrate hydrolysis was followed by fluorescence spectroscopy (excitation wavelength: 360 nm; emission wavelength: 465 nm) for 20 min at 30° C. and initial velocities were calculated and expressed as change in relative fluorescence units (RFU) per second.

Row | SMILES | human Proteasome IC50
1 | O=C1CN(/N=C/C(Cc2ccccc2)NC(=O)C(Cc2ccc3ccccc3c2)NC(=O)C(Cc2ccc(F)cc2)NC(=O)OCc2ccccc2)C(=O)N1 (stereo not drawn) [Compound 9] | nanomolar
2 | O=C1CN(N=CC(Cc2ccccc2)NC(=O)C(Cc2ccc3ccccc3c2)NC(=O)C(Cc2ccc(Br)cc2)NC(=O)OCc2cccnc2)C(=O)N1 (stereo not drawn) [Compound 6] | nanomolar
3 | O=C1CN(N=CC(Cc2ccccc2)NC(=O)C(Cc2ccc3ccccc3c2)NC(=O)C(Cc2ccc(Br)cc2)NC(=O)OCc2ccccc2)C(=O)N1 (stereo not drawn) [Compound 5] | nanomolar
4 | CC(C)(C)OC(=O)NC(Cc1ccc(Br)cc1)C(=O)NC(Cc1ccc2ccccc2c1)C(=O)NC(/C=N/N1CC(=O)NC1=O)Cc1ccccc1 (stereo not drawn) [Compound 7] | nanomolar

Same assay, conditions: unit cell prints nM

Row | SMILES | IC50
5 | O=C1CN(/N=C/C(Cc2ccccc2)NC(=O)C(Cc2c[nH]c3ccccc23)NC(=O)C(Cc2c[nH]c3ccccc23)NC(=O)CCCCC2SCC3NC(=O)NC32)C(=O)N1 (stereo not drawn) [Compound 2] | 76 nM

Same assay, conditions: unit nm [sic]

Row | SMILES | IC50
6 | O=C1CN(/N=C/C(Cc2ccccc2)NC(=O)C(Cc2c[nH]c3ccccc23)NC(=O)C(Cc2c[nH]c3ccccc23)NC(=O)Cc2cccc(Oc3ccccc3)c2)C(=O)N1 (stereo not drawn) [Compound 3] | 224 nM
7 | O=C1CN(/N=C/C(Cc2ccccc2)NC(=O)C(Cc2c[nH]c3ccccc23)NC(=O)C(Cc2c[nH]c3ccccc23)NC(=O)OCc2ccccc2)C(=O)N1 (stereo not drawn) [Compound 1] | 157 nM
8 | O=C1CN(/N=C/C(Cc2ccccc2)NC(=O)C(Cc2c[nH]c3ccccc23)NC(=O)C(Cc2c[nH]c3ccccc23)NC(=O)OCc2cccnc2)C(=O)N1 (stereo not drawn) [Compound 4] | 61 nM
9 | O=C1CN(/N=C/C(Cc2ccccc2)NC(=O)C(Cc2c[nH]c3ccccc23)NC(=O)C(Cc2c[nH]c3ccccc23)NC(=O)OCc2cnccn2)C(=O)N1 (stereo not drawn) [Compound 8] | 133 nM

Same assay, conditions: unit μm [sic]

Row | SMILES | IC50
10 | O=C1CN(/N=C\C(Cc2ccccc2)NC(=O)C2C=Cc3cc(Cl)ccc3O2)C(=O)N1 (stereo not drawn) [Compound 11] | 3540 nM
11 | COc1cc(C(=O)NC(/C=N/N2CC(=O)NC2=O)Cc2ccccc2)nc(OC)n1 (stereo not drawn) [Compound 14] | 2960 nM
12 | O=C(/C=C/c1ccccc1)NC(/C=N\N1CC(=O)NC1=O)Cc1ccccc1 (stereo not drawn) [Compound 12] | 2210 nM
